This note sets out measurements from US20260176320A1, “MODULATORS OF G-PROTEIN COUPLED RECEPTORS” (priority 2018, published 2026).

Holding throughout (type): cell-based
In one assay the target is T1, GIP-R (Homo sapiens, UniProt P48546).
T1 sequence (P48546 22-466): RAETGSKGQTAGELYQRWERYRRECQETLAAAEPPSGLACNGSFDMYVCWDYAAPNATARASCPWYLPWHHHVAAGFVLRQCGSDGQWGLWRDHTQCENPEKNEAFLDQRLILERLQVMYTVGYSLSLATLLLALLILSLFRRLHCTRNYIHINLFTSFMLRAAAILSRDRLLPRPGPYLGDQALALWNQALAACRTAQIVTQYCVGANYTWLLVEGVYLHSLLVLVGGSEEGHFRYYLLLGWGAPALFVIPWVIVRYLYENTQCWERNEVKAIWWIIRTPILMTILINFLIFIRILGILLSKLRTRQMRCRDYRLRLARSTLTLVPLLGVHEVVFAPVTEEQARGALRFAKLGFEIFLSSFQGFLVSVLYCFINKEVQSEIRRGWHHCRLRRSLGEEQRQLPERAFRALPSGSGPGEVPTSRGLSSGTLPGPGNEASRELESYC
The experiment in a line: HitHunter cAMP assay (GIP-R). Conditions: cAMP; for Emax: read-out: (Emax) GIP-R. The procedure, abridged: (§1)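 Luminescent readout of cAMP by enzyme-fragment immunocompetition gave agonist concentration-response data. Cells (10,000/well) sat in HBSS buffer containing IBMX 625 μM, HEPES 10 mM and BSA 0.2%, exposed to agonist for 30 min at room temperature.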
For orientation: cAMP levels reflect the balance of adenylyl cyclase and phosphodiesterase activity.

Assay [1] concerns the target T2, GLP-1R (Homo sapiens, UniProt P43220). In words: HitHunter cAMP assay (GLP-1R). Conditions: cAMP; for Emax: read-out: (Emax) GLP-1R. The procedure, abridged:
as §1

Assay [2] has as its target T2, GLP-1R. The experiment in a line: PathHunter β-arrestin assay. The procedure, abridged:
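Overnight-plated cells; 0.2% BSA medium; agonist 22-pt 2× dilution series, duplicate; 90 min, 37 °C/5% CO2; detection reagent 3 h RT, dark; luminescence.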

[3] abbreviates: Table 3, read-out: EC50 GIP-R/nM.
Where [4] appears, read: Table 3A, read-out: EC50 GIP-R/nM.
The mark [5] stands for this setting: Table 3, read-out: EC50 GLP-1R/nM.
[6] abbreviates: Table 3A, read-out: EC50 GLP-1R/nM.
The mark [7] stands for this setting: PathHunter β-arrestin assay, read-out: β-arrestin activity EC50.

The structures appear in SMILES notation. Where two headings read alike, the source gives them in different places.

T2 sequence (P43220 24-463): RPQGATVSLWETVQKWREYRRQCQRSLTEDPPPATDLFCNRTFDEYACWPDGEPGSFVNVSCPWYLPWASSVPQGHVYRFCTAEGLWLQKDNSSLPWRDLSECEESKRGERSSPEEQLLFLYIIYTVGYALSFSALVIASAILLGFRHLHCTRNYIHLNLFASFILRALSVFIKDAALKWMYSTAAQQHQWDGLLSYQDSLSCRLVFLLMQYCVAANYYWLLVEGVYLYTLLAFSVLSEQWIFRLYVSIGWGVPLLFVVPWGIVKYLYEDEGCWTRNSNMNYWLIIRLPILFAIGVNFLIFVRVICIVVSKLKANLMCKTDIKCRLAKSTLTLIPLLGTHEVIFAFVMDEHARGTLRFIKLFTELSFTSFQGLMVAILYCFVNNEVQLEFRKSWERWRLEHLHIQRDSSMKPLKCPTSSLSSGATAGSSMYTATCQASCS

As to `CCCCCCCCCCCCCCCC(=O)N[C@@H](CCC(=O)NCCCC[C@H](NC(=O)[C@H](CO)NC(=O)[C@@H]1CCCN1C(=O)[C@@H]1CCCN1C(=O)[C@@H]1CCCN1C(=O)[C@H](C)NC(=O)CNC(=O)[C@H](CO)NC(=O)[C@H](CO)NC(=O)[C@@H]1CCCN1C(=O)CNC(=O)CNC(=O)[C@H](C)NC(=O)[C@H](CC(C)C)NC(=O)[C@H](CC(C)C)NC(=O)[C@H](Cc1c[nH]c2ccccc12)NC(=O)[C@H](CC(N)=O)NC(=O)[C@@H](NC(=O)[C@H](Cc1ccccc1)NC(=O)[C@H](CCC(=O)O)NC(=O)C(C)(C)NC(=O)[C@H](C)NC(=O)[C@H](C)NC(=O)[C@H](CCC(N)=O)NC(=O)[C@H](CCCCN)NC(=O)[C@H](CC(=O)O)NC(=O)[C@H](CC(C)C)NC(=O)[C@H](Cc1ccc(O)cc1)NC(=O)[C@@H](NC(=O)[C@H](CO)NC(=O)[C@H](Cc1ccc(O)cc1)NC(=O)[C@H](CC(=O)O)NC(=O)[C@H](CO)NC(=O)[C@@H](NC(=O)[C@H](Cc1ccccc1)NC(=O)[C@@H](NC(=O)CNC(=O)[C@H](CCC(=O)O)NC(=O)CSCC(=O)N(C)CCN1CCCCC1=O)[C@@H](C)O)[C@@H](C)O)[C@@H](C)CC)C(C)C)C(N)=O)C(=O)O` [Compound 17], the EC50 on GIP-R (EC50 GIP-R/nM, Table 3) was 1 to 10 nM; on GIP-R (EC50 GIP-R/nM, Table 3A) it was 1 to 10 nM; on GLP-1R [1] (EC50 GLP-1R/nM, Table 3), 0.1 to 1 nM; on GLP-1R [1] (EC50 GLP-1R/nM, Table 3A), 0.1 to 1 nM; on GLP-1R [2] it was greater than 1000 nM. For the same compound, the Emax at GIP-R (Table 3) was 55%; at GIP-R (Table 3A) it was 55%; at GLP-1R [1] (Table 3), 92%; on GLP-1R [1] (Table 3A), 92%.

`CC[C@H](C)[C@H](NC(=O)[C@H](CO)NC(=O)[C@H](Cc1ccc(O)cc1)NC(=O)[C@H](CC(=O)O)NC(=O)[C@H](CO)NC(=O)[C@@H](NC(=O)[C@H](Cc1ccccc1)NC(=O)[C@@H](NC(=O)CNC(=O)[C@H](CCC(=O)O)NC(=O)C(C)(C)C(=O)NCCN1C(=O)c2ccccc2C1=O)[C@@H](C)O)[C@@H](C)O)C(=O)N[C@@H](Cc1ccc(O)cc1)C(=O)N[C@@H](CC(C)C)C(=O)N[C@@H](CC(=O)O)C(=O)N[C@@H](CCCCN)C(=O)N[C@@H](CCC(N)=O)C(=O)N[C@@H](C)C(=O)N[C@@H](C)C(=O)NC(C)(C)C(=O)N[C@@H](CCC(=O)O)C(=O)N[C@@H](Cc1ccccc1)C(=O)N[C@H](C(=O)N[C@@H](CC(N)=O)C(=O)N[C@@H](Cc1c[nH]c2ccccc12)C(=O)N[C@@H](CC(C)C)C(=O)N[C@@H](CC(C)C)C(=O)N[C@@H](C)C(=O)NCC(=O)NCC(=O)N1CCC[C@H]1C(=O)N[C@@H](CO)C(=O)N[C@@H](CO)C(=O)NCC(=O)N[C@@H](C)C(=O)N1CCC[C@H]1C(=O)N1CCC[C@H]1C(=O)N1CCC[C@H]1C(=O)N[C@@H](CO)C(=O)N[C@@H](CCCCN)C(N)=O)C(C)C` [Compound 140]: the EC50 on GIP-R (EC50 GIP-R/nM, Table 3) was 1 to 10 nM; at GIP-R (EC50 GIP-R/nM, Table 3A), 1 to 10 nM; on GLP-1R [1] (EC50 GLP-1R/nM, Table 3), less than 0.1 nM; at GLP-1R [1] (EC50 GLP-1R/nM, Table 3A) it was less than 0.1 nM; at GLP-1R [2], greater than 1000 nM. Also, the Emax came to 63% on GIP-R (Table 3), 63% on GIP-R (Table 3A), 107% at GLP-1R [1] (Table 3) and 107% at GLP-1R [1] (Table 3A).

For the compound `CC[C@H](C)[C@H](NC(=O)[C@H](CO)NC(=O)[C@H](Cc1ccc(O)cc1)NC(=O)[C@H](CC(=O)O)NC(=O)[C@H](CO)NC(=O)[C@@H](NC(=O)[C@H](Cc1ccccc1)NC(=O)[C@@H](NC(=O)CNC(=O)[C@H](CCC(=O)O)NC(=O)/C=C/C(=O)NCCN1C(=O)CSC1=O)[C@@H](C)O)[C@@H](C)O)C(=O)N[C@@H](Cc1ccc(O)cc1)C(=O)N[C@@H](CC(C)C)C(=O)N[C@@H](CC(=O)O)C(=O)N[C@@H](CCCCN)C(=O)N[C@@H](CCC(N)=O)C(=O)N[C@@H](C)C(=O)N[C@@H](C)C(=O)NC(C)(C)C(=O)N[C@@H](CCC(=O)O)C(=O)N[C@@H](Cc1ccccc1)C(=O)N[C@H](C(=O)N[C@@H](CC(N)=O)C(=O)N[C@@H](Cc1c[nH]c2ccccc12)C(=O)N[C@@H](CC(C)C)C(=O)N[C@@H](CC(C)C)C(=O)N[C@@H](C)C(=O)NCC(=O)NCC(=O)N1CCC[C@H]1C(=O)N[C@@H](CO)C(=O)N[C@@H](CO)C(=O)NCC(=O)N[C@@H](C)C(=O)N1CCC[C@H]1C(=O)N1CCC[C@H]1C(=O)N1CCC[C@H]1C(=O)N[C@@H](CO)C(=O)N[C@@H](CCCCN)C(N)=O)C(C)C` [Compound 167], the EC50 is greater than 1000 nM on GIP-R (setting [3]); greater than 1000 nM at GIP-R (setting [4]); 0.1 to 10 nM at GLP-1R [1] (setting [5]); 0.1 to 10 nM on GLP-1R [1] (setting [6]); greater than 1000 nM on GLP-1R [2] (setting [7]). For the same compound, the Emax at 1 µM at GIP-R (read-out: (Emax) GIP-R at 1 μM, Table 3, at 1 μM) is less than 1%. Besides, the Emax at GLP-1R [1] (Table 3) and on GLP-1R [1] (Table 3A) was 94 to 99% each time.

As to `CCCCCCCCCCCCCCCC(=O)N[C@@H](CCC(=O)NCCCC[C@H](NC(=O)[C@H](CO)NC(=O)[C@@H]1CCCN1C(=O)[C@@H]1CCCN1C(=O)[C@@H]1CCCN1C(=O)[C@H](C)NC(=O)CNC(=O)[C@H](CO)NC(=O)[C@H](CO)NC(=O)[C@@H]1CCCN1C(=O)CNC(=O)CNC(=O)[C@H](C)NC(=O)[C@H](CC(C)C)NC(=O)[C@H](CC(C)C)NC(=O)[C@H](Cc1c[nH]c2ccccc12)NC(=O)[C@H](CC(N)=O)NC(=O)[C@@H](NC(=O)[C@H](Cc1ccccc1)NC(=O)[C@H](CCC(=O)O)NC(=O)C(C)(C)NC(=O)[C@H](C)NC(=O)[C@H](C)NC(=O)[C@H](CCC(N)=O)NC(=O)[C@H](CCCCN)NC(=O)[C@H](CC(=O)O)NC(=O)[C@H](CC(C)C)NC(=O)[C@H](Cc1ccc(O)cc1)NC(=O)[C@@H](NC(=O)[C@H](CO)NC(=O)[C@H](Cc1ccc(O)cc1)NC(=O)[C@H](CC(=O)O)NC(=O)[C@H](CO)NC(=O)[C@@H](NC(=O)[C@H](Cc1ccccc1)NC(=O)[C@@H](NC(=O)CNC(=O)[C@H](CCC(=O)O)NC(=O)CSCC(=O)NCCN1CCNC(=O)C1)[C@@H](C)O)[C@@H](C)O)[C@@H](C)CC)C(C)C)C(N)=O)C(=O)O` [Compound 37], the Emax on GIP-R (Table 3) is 10 to 21%; at GIP-R (Table 3A) it was 10 to 21%; on GLP-1R [1] (Table 3), 110%; on GLP-1R [1] (Table 3A) it was 110%. The EC50 is 1 to 10 nM on GIP-R (setting [3]), less than 1 nM at GLP-1R [1] (setting [5]), less than 1 nM on GLP-1R [1] (setting [6]) and greater than 1000 nM on GLP-1R [2] (setting [7]).

For `CC[C@H](C)[C@H](NC(=O)[C@H](CO)NC(=O)[C@H](Cc1ccc(O)cc1)NC(=O)[C@H](CC(=O)O)NC(=O)[C@H](CO)NC(=O)[C@@H](NC(=O)[C@H](Cc1ccccc1)NC(=O)[C@@H](NC(=O)CNC(=O)[C@H](CCC(=O)O)NC(=O)CCC(=O)NCCN1C(=O)CSC1=O)[C@@H](C)O)[C@@H](C)O)C(=O)N[C@@H](Cc1ccc(O)cc1)C(=O)N[C@@H](CC(C)C)C(=O)N[C@@H](CC(=O)O)C(=O)N[C@@H](CCCCN)C(=O)N[C@@H](CCC(N)=O)C(=O)N[C@@H](C)C(=O)N[C@@H](C)C(=O)NC(C)(C)C(=O)N[C@@H](CCC(=O)O)C(=O)N[C@@H](Cc1ccccc1)C(=O)N[C@H](C(=O)N[C@@H](CC(N)=O)C(=O)N[C@@H](Cc1c[nH]c2ccccc12)C(=O)N[C@@H](CC(C)C)C(=O)N[C@@H](CC(C)C)C(=O)N[C@@H](C)C(=O)NCC(=O)NCC(=O)N1CCC[C@H]1C(=O)N[C@@H](CO)C(=O)N[C@@H](CO)C(=O)NCC(=O)N[C@@H](C)C(=O)N1CCC[C@H]1C(=O)N1CCC[C@H]1C(=O)N1CCC[C@H]1C(=O)N[C@@H](CO)C(=O)N[C@@H](CCCCN)C(N)=O)C(C)C` [Compound 192], the Emax was found to be 63% at GIP-R (Table 3), 63% on GIP-R (Table 3A), 111% at GLP-1R [1] (Table 3) and 111% at GLP-1R [1] (Table 3A). The EC50 at GIP-R (setting [3]) was 10 to 100 nM; at GIP-R (setting [4]), 10 to 100 nM; on GLP-1R [1] (setting [5]) it was 0.1 to 1 nM; at GLP-1R [1] (setting [6]), 0.1 to 1 nM; on GLP-1R [2] (setting [7]), greater than 1000 nM.

By Emax is commonly meant the greatest response seen or fitted, relative to the assay's reference.
